The term pIC50 denotes −log10 of the IC50, conventionally taken in molar units.

One assay has as its target T1, LRRK2 WT (Homo sapiens, UniProt Q5S007).
T1 construct: comprises residue 970 to 2527 of the full length human wild-type LRRK2 kinase; purchased Invitrogen (Life Technologies Corporation)
Put plainly: LRRK2 wild-type kinase activity assay (LanthaScreen TR-FRET). The note with it: 1 nM LRRK2 WT, 1.3 mM ATP, 3.5 h at 30° C.; n≥2 tests. The assay is classed as biochemical. The procedure: (§1) LRRK2 kinase activity was measured using a LanthaScreen kinase activity assay available from Invitrogen (Life Technologies Corporation). The assay is a homogeneous time resolved-fluorescence resonance energy transfer (TR-FRET) assay that measures phosphorylation of a fluorescein-labelled peptide substrate Fluorescein-ERM LRRKtide obtainable from Life Technologies Corporation as a result of LRRK2 kinase activity. The phosphorylated peptide is recognized by a terbium-labelled phospho-specific anti-LRRKtide antibody (pLRRKtide antibody), obtainable from Life Technologies Corporation and, subsequently, the phosphorylated LRRKtide can be quantified by the extent of TR-FRET between the terbium donor and fluorescein acceptor. The LRRK2 kinase was obtained from Invitrogen (Life Technologies Corporation) and comprises residue 970 to 2527 of the full length human wild-type LRRK2 kinase, or a similar sequence with the G2019S mutation. As discussed above, this mutation increases the kinase activity relative to the wild type. The kinase reactions were performed in a 20 μL volume in 384-well plates. […] The mixture was further incubated for 30 minutes at RT. […] The measurement was repeated 30 times for fluorescein and 30 times for terbium emission with a 1000 μs time window between repeats. TR-FRET measurements were performed on a Biotek Synergy plate. The TR-FRET signal was calculated as the emission-ratio at 520 nm over 495 nm. The TR-FRET ratio readout for test compounds was normalized to 0% inhibition corresponding to TR-FRET ratio measured in control wells with no inhibition of the kinase activity and 100% inhibition corresponding to TR-FRET ratio measured in control wells with inhibitor. […] C is the IC50 value and D is the Hill slope coefficient. IC50 estimates were obtained from independent experiment and the logarithmic average was calculated.
(In general: Time-resolved FRET reads energy transfer from a long-lived donor to a nearby acceptor.)

The next assay deals with T2, LRRK2 G2019S (Homo sapiens, UniProt Q5S007, G2019S).
T2 construct: purchased Invitrogen (Life Technologies Corporation)
T2 sequence (Q5S007 970-2527 G2019S): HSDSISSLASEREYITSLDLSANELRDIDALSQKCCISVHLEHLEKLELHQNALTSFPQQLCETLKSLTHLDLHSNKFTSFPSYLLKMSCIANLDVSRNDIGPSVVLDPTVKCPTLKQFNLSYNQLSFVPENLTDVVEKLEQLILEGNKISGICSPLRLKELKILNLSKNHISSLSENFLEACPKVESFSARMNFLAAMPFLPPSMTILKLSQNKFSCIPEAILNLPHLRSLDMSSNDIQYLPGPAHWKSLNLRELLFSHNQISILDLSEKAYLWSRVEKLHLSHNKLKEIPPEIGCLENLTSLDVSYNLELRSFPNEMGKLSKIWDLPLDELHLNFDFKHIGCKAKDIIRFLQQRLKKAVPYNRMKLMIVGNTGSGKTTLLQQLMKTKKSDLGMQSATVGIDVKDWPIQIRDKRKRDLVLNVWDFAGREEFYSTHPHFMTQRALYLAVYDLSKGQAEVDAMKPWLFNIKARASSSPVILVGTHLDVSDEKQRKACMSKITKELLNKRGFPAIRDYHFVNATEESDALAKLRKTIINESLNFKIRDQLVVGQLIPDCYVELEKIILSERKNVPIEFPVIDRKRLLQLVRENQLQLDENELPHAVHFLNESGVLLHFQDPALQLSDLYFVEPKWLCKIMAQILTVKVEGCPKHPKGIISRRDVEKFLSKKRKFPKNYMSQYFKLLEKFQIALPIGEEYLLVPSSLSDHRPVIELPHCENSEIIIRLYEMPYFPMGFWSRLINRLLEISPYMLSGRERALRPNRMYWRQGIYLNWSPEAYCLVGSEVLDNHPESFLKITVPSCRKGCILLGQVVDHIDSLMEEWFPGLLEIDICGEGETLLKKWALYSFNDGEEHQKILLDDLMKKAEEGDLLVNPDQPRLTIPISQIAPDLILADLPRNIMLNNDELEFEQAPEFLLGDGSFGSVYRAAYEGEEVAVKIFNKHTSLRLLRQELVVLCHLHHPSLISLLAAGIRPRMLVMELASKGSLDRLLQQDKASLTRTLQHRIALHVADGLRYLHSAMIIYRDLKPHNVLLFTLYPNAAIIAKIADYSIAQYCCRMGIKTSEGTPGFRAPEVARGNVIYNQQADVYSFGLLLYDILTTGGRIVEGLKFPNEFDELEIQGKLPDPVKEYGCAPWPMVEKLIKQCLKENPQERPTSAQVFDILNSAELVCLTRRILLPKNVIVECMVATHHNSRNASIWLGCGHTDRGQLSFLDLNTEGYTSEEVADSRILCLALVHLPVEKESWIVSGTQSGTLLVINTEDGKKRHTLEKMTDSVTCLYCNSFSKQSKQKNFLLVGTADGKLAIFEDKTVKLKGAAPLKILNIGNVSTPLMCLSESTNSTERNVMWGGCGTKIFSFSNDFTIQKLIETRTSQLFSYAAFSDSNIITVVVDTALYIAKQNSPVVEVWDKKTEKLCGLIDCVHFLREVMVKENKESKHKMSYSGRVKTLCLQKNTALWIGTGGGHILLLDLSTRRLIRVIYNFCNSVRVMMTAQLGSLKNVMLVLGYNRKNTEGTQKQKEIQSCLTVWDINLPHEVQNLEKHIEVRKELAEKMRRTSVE
Put plainly: LRRK2 G2019S kinase activity assay (LanthaScreen TR-FRET). The format is biochemical. To be noted: 250 pM LRRK2 G2019S, 1.3 mM ATP, 3 h at 30° C.; n≥2 tests. The procedure: as §1

pIC50: −log10 of the molar value.

T1 sequence (Q5S007 970-2527): as the sequence (Q5S007 970-2527 G2019S) above, with S1050G counted along it

As for `FC1(c2c3c(nn2C2CCOCC2)OCCCn2nc(Cl)c4cnc(nc42)N3)CC1` [Example 16, 8-Chloro-3-(1-fluorocyclopropyl)-2-(tetrahydro-2H-pyran-4-yl)-2,4,12,13-tetrahydro-11H-5,7-(azenometheno)dipyrazolo[3,4-b:5′,1′-g][1]oxa[4,6,8]triazacycloundecine], the results for the pIC50 on LRRK2 WT and at LRRK2 G2019S were 7.22 and 7.80, respectively.

Take `[2H]C1([2H])Oc2nn(C3CCOCC3)c(C)c2Nc2ncc3c(Cl)nn(c3n2)C([2H])([2H])C1([2H])[2H]` [Example 20, 8-Chloro-3-methyl-2-(tetrahydro-2H-pyran-4-yl)-2,4,12,13-tetrahydro-11H-5,7-(azenometheno)dipyrazolo[3,4-b:5′,1′-g][1]oxa[4,6,8]triazacycloundecine-11,11,12,12,13,13-d6]: the negative logarithm of the IC50 (pIC50) on LRRK2 WT is 7.85; on LRRK2 G2019S, 8.29.

Consider `Cc1c2c(nn1C1CCC(F)(F)CC1)OCCCn1nc(Cl)c3cnc(nc31)N2` [Example 26, 8-Chloro-2-(4,4-difluorocyclohexyl)-3-methyl-2,4,12,13-tetrahydro-11H-5,7-(azenometheno)dipyrazolo[3,4-b:5′,1′-g][1]oxa[4,6,8]triazacycloundecine], for which the negative-log IC50 (pIC50) was 7.68 on LRRK2 WT and 8.23 at LRRK2 G2019S.

Turning to `Cc1c2c(nn1C1CC3(COC3)C1)OCCCn1nc(Cl)c3cnc(nc31)N2` [Example 34, 8-Chloro-3-methyl-2-(2-oxaspiro[3.3]heptan-6-yl)-2,4,12,13-tetrahydro-11H-5,7-(azenometheno)dipyrazolo[3,4-b:5′,1′-g][1]oxa[4,6,8]triazacycloundecine], the figures for the pIC50 at LRRK2 WT and on LRRK2 G2019S were 7.74 and 8.24, respectively.

With `[2H]C([2H])([2H])c1c2c(nn1C1CCOCC1)OC([2H])([2H])C([2H])([2H])C([2H])([2H])n1nc(Cl)c3cnc(nc31)N2` [Example 35, 8-Chloro-3-(methyl-d3)-2-(tetrahydro-2H-pyran-4-yl)-2,4,12,13-tetrahydro-11H-5,7-(azenometheno)dipyrazolo[3,4-b:5′,1′-g][1]oxa[4,6,8]triazacycloundecine-11,11,12,12,13,13-d6], the pIC50 on LRRK2 WT is 7.82; at LRRK2 G2019S it was 8.28.

Regarding `Cc1c2c(nn1C1(C#N)CC1)OCCCn1nc(Cl)c3cnc(nc31)N2` [Example 36, 1-(8-Chloro-3-methyl-12,13-dihydro-11H-5,7-(azenometheno)dipyrazolo[3,4-b:5′,1′-g][1]oxa[4,6,8]triazacycloundecin-2(4H)-yl)cyclopropane-1-carbonitrile], the figures for the pIC50 on LRRK2 WT and on LRRK2 G2019S were 7.64 and 8.14, respectively.

On to `[2H]C1([2H])CCOc2nn(C3CCOCC3)c(C)c2Nc2ncc3c(Cl)nn1c3n2` [Example 45, 8-Chloro-3-methyl-2-(tetrahydro-2H-pyran-4-yl)-2,4,12,13-tetrahydro-11H-5,7-(azenometheno)dipyrazolo[3,4-b:5′,1′-g][1]oxa[4,6,8]triazacycloundecine-11,11-d2], for which the pIC50 on LRRK2 WT was 7.89; at LRRK2 G2019S it was 8.44.

With `[2H]C1([2H])CCn2nc(Cl)c3cnc(nc32)Nc2c(nn(C3CCOCC3)c2C)O1` [Example 46, 8-Chloro-3-methyl-2-(tetrahydro-2H-pyran-4-yl)-2,4,12,13-tetrahydro-11H-5,7-(azenometheno)dipyrazolo[3,4-b:5′,1′-g][1]oxa[4,6,8]triazacycloundecine-13,13-d2], the results for the pIC50 on LRRK2 WT and on LRRK2 G2019S were 7.92 and 8.51, respectively.

For the compound `Cc1c2c(nn1CC1CCOCC1)OCCCn1nc(Cl)c3cnc(nc31)N2` [Example 49, 8-Chloro-3-methyl-2-((tetrahydro-2H-pyran-4-yl)methyl)-2,4,12,13-tetrahydro-11H-5,7-(azenometheno)dipyrazolo[3,4-b:5′,1′-g][1]oxa[4,6,8]triazacycloundecine], the figures for the negative logarithm of the IC50 (pIC50) on LRRK2 WT and at LRRK2 G2019S were 8.03 and 8.33, respectively.

The values above are taken from patent publication US11780851B2, “LRRK2 inhibitors” (H. Lundbeck A/S, priority 2021, dated 2023).
